Results on five compounds are retold here after PubChem BioAssay AID651642 (Sanford-Burnham Center for Chemical Genomics, 2012).

For test [1], the system named is H9c2. The test can be described thus: protection of cardiomyocytes from stress damage, SAR follow-up, cell-based, panel, H9c2 and HL-1, H2O2, 2-deoxyglucose, ATP luminescence (AID 651642).
For test [2], the system named is HL-1. Described as above.
Where [3] appears, read: H9c2/HL-1 cardiomyocyte 2-deoxyglucose damage, mean of runs, with 2-deoxyglucose, mean IC50 across panel.
Setting [4] is: H9c2/HL-1 cardiomyocyte 2-deoxyglucose damage, run 1, with 2-deoxyglucose.
Setting [5] is: H9c2/HL-1 cardiomyocyte 2-deoxyglucose damage, run 2, with 2-deoxyglucose.
Where [6] appears, read: H9c2/HL-1 cardiomyocyte 2-deoxyglucose damage, run 3, with 2-deoxyglucose.
Setting [7] is: H9c2/HL-1 cardiomyocyte 2-deoxyglucose damage, run 4, with 2-deoxyglucose.
The mark [8] stands for this setting: H9c2/HL-1 cardiomyocyte H2O2 oxidative damage, mean of runs, with H2O2, mean IC50 across panel.
The mark [9] stands for this setting: H9c2/HL-1 cardiomyocyte H2O2 oxidative damage, run 1, with H2O2.
Where [10] appears, read: H9c2/HL-1 cardiomyocyte H2O2 oxidative damage, run 2, with H2O2.
Where [11] appears, read: H9c2/HL-1 cardiomyocyte H2O2 oxidative damage, run 3, with H2O2.
Where [12] appears, read: H9c2/HL-1 cardiomyocyte H2O2 oxidative damage, run 4, with H2O2.

The structures appear in SMILES notation.

In general, IC50 refers to the concentration that gives 50% inhibition. A high value points to weaker potency in that assay. As for `COc1cc(-c2cc(C(=O)NCC(=O)Nc3cccc(C(C)=O)c3)c3ccccc3n2)cc(OC)c1OC`, the half-maximal inhibitory concentration (IC50) in test [1] (setting [3]) is 8.19 µM; in test [1] (setting [4]), 9.43 µM; in test [1] (setting [5]), 9.75 µM; in test [1] (setting [6]), 6.11 µM; in test [1] (setting [7]), 7.46 µM; in test [1] (setting [8]), 1.61 µM. The half-maximal inhibitory concentration (IC50) in test [1] (setting [9]) was 1.67 µM; in test [1] (setting [10]), 2.65 µM; in test [1] (setting [11]), 0.99 µM; in test [1] (setting [12]), 1.13 µM; in test [2] (setting [3]), 6.18 µM; in test [2] (setting [4]) it was 2.77 µM. Also, the IC50 stood at 3.2 µM in test [2] (setting [5]); 8.97 µM in test [2] (setting [6]); 9.78 µM in test [2] (setting [7]); 6.32 µM in test [2] (setting [8]); 4.49 µM in test [2] (setting [9]); 9.07 µM in test [2] (setting [10]). In addition, the IC50 stood at 4.55 µM in test [2] (setting [11]) and 7.16 µM in test [2] (setting [12]).
As for `COc1cc(-c2cc(C(=O)Nc3cccc(C(=O)NCc4ccccc4)c3)c3ccccc3n2)cc(OC)c1OC`, the concentration for half-maximal inhibition (IC50) in test [1] (setting [3]) is 3.38 µM; in test [1] (setting [4]), 3.81 µM; in test [1] (setting [5]) it was 4.57 µM; in test [1] (setting [6]) it was 2.32 µM; in test [1] (setting [7]), 2.81 µM; in test [1] (setting [8]), 1.13 µM. In addition, the IC50 in test [1] (setting [9]) was 1.54 µM; in test [1] (setting [10]), 1.62 µM; in test [1] (setting [11]), 0.678 µM; in test [1] (setting [12]), 0.686 µM; in test [2] (setting [3]), 1.36 µM; in test [2] (setting [4]), 0.74 µM. Further, the IC50 in test [2] (setting [5]) is 0.813 µM; in test [2] (setting [6]) it was 1.85 µM; in test [2] (setting [7]) it was 2.05 µM; in test [2] (setting [8]) it was 3.33 µM; in test [2] (setting [9]), 1.7 µM; in test [2] (setting [10]) it was 2.25 µM. Also, the IC50 in test [2] (setting [11]) worked out at 2.4 µM; in test [2] (setting [12]), 6.96 µM.
`COc1cc(-c2cc(C(=O)Nc3cccc(C(C)=O)c3)c3cc(C)ccc3n2)cc(OC)c1OC`: the IC50 is greater than 79 µM in test [1] (setting [3]); greater than 79 µM in test [1] (setting [4]); greater than 79 µM in test [1] (setting [5]); greater than 79 µM in test [1] (setting [6]); greater than 79 µM in test [1] (setting [7]); 5.05 µM in test [1] (setting [8]). Besides, the IC50 in test [1] (setting [9]) turned out to be 4.03 µM; in test [1] (setting [10]), 8.34 µM; in test [1] (setting [11]), 3.55 µM; in test [1] (setting [12]), 4.29 µM; in test [2] (setting [4]), 4.82 µM; in test [2] (setting [5]) it was 5.03 µM. The IC50 in test [2] (setting [6]) was greater than 79 µM; in test [2] (setting [7]), greater than 79 µM; in test [2] (setting [8]) it was 4.11 µM; in test [2] (setting [9]) it was 4.85 µM; in test [2] (setting [10]), 5.7 µM; in test [2] (setting [11]) it was 2.78 µM. The compound also showed a half-maximal inhibitory concentration (IC50) in test [2] (setting [12]) of 3.12 µM.
Take `COc1cc(-c2cc(C(=O)Nc3cccc(C(C)=O)c3)c3cc(F)ccc3n2)cc(OC)c1OC`: the IC50 was greater than 79 µM in test [1] (setting [3]); greater than 79 µM in test [1] (setting [4]); greater than 79 µM in test [1] (setting [5]); greater than 79 µM in test [1] (setting [6]); greater than 79 µM in test [1] (setting [7]); 6.9 µM in test [1] (setting [8]). Further, the half-maximal inhibitory concentration (IC50) was 5.38 µM in test [1] (setting [9]); 7.18 µM in test [1] (setting [10]); 4.58 µM in test [1] (setting [11]); 10.5 µM in test [1] (setting [12]); greater than 79 µM in test [2] (setting [3]); greater than 79 µM in test [2] (setting [4]). Besides, the IC50 in test [2] (setting [5]) was greater than 79 µM; in test [2] (setting [6]), greater than 79 µM; in test [2] (setting [7]), greater than 79 µM; in test [2] (setting [8]), 3.68 µM; in test [2] (setting [9]) it was 2.49 µM; in test [2] (setting [10]), 3.72 µM. The values for the IC50 in test [2] (setting [11]) and in test [2] (setting [12]) were 3.31 µM and 5.2 µM, respectively.
In the case of `COc1cc(-c2cc(C(=O)Nc3cccc(C(C)=O)c3)c3ccc(Cl)cc3n2)cc(OC)c1OC`, the half-maximal inhibitory concentration (IC50) was greater than 79 µM in test [1] (setting [3]); greater than 79 µM in test [1] (setting [4]); greater than 79 µM in test [1] (setting [5]); greater than 79 µM in test [1] (setting [6]); greater than 79 µM in test [1] (setting [7]); 3.39 µM in test [1] (setting [9]). The half-inhibitory concentration (IC50) in test [1] (setting [10]) was 3.79 µM; in test [1] (setting [11]), greater than 79 µM; in test [1] (setting [12]), greater than 79 µM; in test [2] (setting [3]), greater than 79 µM; in test [2] (setting [4]), greater than 79 µM; in test [2] (setting [5]), greater than 79 µM. For the same compound, the IC50 in test [2] (setting [6]) was greater than 79 µM; in test [2] (setting [7]), greater than 79 µM; in test [2] (setting [8]), 2.26 µM; in test [2] (setting [9]) it was 3.07 µM; in test [2] (setting [10]) it was 3.46 µM; in test [2] (setting [11]), 0.875 µM. Also, in test [2] (setting [12]), the IC50 is 1.65 µM.
